Tested on: Human gingival fibroblasts (HGF-1)
Experiment: In vitro cytotoxicity (MTS) of PAMAM scaffolds
Assay type: cell-based
Protocol: The toxicity of the PAMAM scaffolds to human gingival fibroblasts (HGF-1) was evaluated after 2 and 24 h exposure times. Human gingival fibroblasts (HGF-1) were grown in FibroLife fibroblast serum-free media, and incubated in 5 vol % CO2 under humidified conditions at 37° C. The cells were trypsinized at 80% confluency and seeded into tissue culture-treated polystyrene 96-well plates at a density of 10^4 cells/well. The plates were incubated for an additional 24 h at 37° C. The supernatant was aspirated and replaced with 100 μL of fresh growth medium containing various concentrations of PAMAM scaffolds. After two incubation time points (i.e., 2 and 24 h) at 37° C., the supernatant was aspirated, and the cells were washed with DPBS. A 100 μL solution of media/MTS/PMS (105/20/1, v/v/v) solution was added to each well, and incubated for 3 h at 37° C. The absorbance of the colored supernatant was quantified at 490 nm using a Thermoscientific Multiskan EX plate reader (Waltham, MA). Measurements for untreated cells (control) and media/MTS/PMS mixture (blank) were also collected. Results were expressed as percentage of relative cell viability as follows: % cell viability=[(Abs490−Absblank)□/(Abscontrol−Absblank)]×100% (Eq. 1)
A killing curve was constructed for NO-releasing and control PAMAM scaffolds by plotting % cell viability versus concentration (mg mL^−).

Q: For Hyperbranched polyamidoamine [h-PAMAM], which “toxicity to HGF-1 (in words)” value is on record?
A: most toxic

Reference: patent US12460050B2, “Nitric oxide-releasing hyperbranched compounds as antibacterial scaffolds and methods pertaining thereto” (The University of North Carolina at Chapel Hill, priority 2017, dated 2025)
